According to patent publication US20260022143A1, “Cyclic Peptide Inhibitors of IL-23” (JANSSEN PHARMACEUTICA NV, priority 2022, published 2026):
Starred links: 1 amine or outer side, 2 acyl side, 3 side chain; linkers in the order of their positions; H or OH if unused. Positions of bridges follow the written chain, without caps; N, C: chain ends. Non-standard residues stand in square brackets, D forms with d. Residues, ends and D or L forms follow the SMILES beside them. ξ: configuration not given here. *: point of attachment. Trp(7-(3-AcNH-Ph)) = CC(=O)Nc1cccc(-c2cccc3c(C[C@H](N)C(=O)O)c[nH]c23)c1; X41 = C[N+]1(CCCCCCCc2cn(-c3ccc(C[C@H](N[*:1])C(=O)[*:2])cc3)nn2)CCOCC1; Me3N+(CH2)2O(CH2)2O(CH2)2CO = C[N+](C)(C)CCOCCOCCC(=O)*; CH2CH2OCH2CH2OCH2CH2NMe3+ = C[N+](C)(C)CCOCCOCC*; Trp(7-Me) = Cc1cccc2c(C[C@H](N)C(=O)O)c[nH]c12; Abu(4-yl) = O=C([C@H](CC[*:3])N[*:1])[*:2]; 3Pal(5-Me) = Cc1cncc(C[C@H](N)C(=O)O)c1; 2Nal = N[C@@H](Cc1ccc2ccccc2c1)C(=O)O; AEF = NCCOc1ccc(C[C@H](N)C(=O)O)cc1; 3Pal = N[C@@H](Cc1cccnc1)C(=O)O; Ethyl(2-guanidino) = N=C(N)NCC*; Lys(Me) = CNCCCC[C@H](N)C(=O)O; Pen = CC(C)(S)[C@H](N)C(=O)O; ξLys(Me) = CNCCCCC(N)C(=O)O; αMeC = C[C@](N)(CS)C(=O)O; Thp = NC1(C(=O)O)CCOCC1; X3 = C[N+](C)(C)CCCCC*; Sar = CNCC(=O)O

Experiments:
[1] = Exposed Polar Surface Area (EPSA); format: physicochemical; settings: SFC on Chirex 3014 column; sample 1 mM DMSO stock; read-out: EPSA
Procedure, shortened: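 Retention-based polarity: supercritical CO2 with 20 mM ammonium formate in MeOH (5–60%, 20%/min), Chirex 3014 column, 35 °C. Calibrated against 8 standards to give EPSA (Å^2); each sample measured twice.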

IL-23R = biological target: T1, IL-23R (Homo sapiens, UniProt Q5VWK5); experiment: IL23R Reporter Assay; format: cell-based; settings: HEK293 cells containing IL-23R, IL-12RP1 and STAT-inducible firefly luciferase reporter; 10 ng/mL IL-23 (EC90); 5 h at 37° C.; read-out: IL23R Reporter Assay
T1 construct: host or cells: HEK293
T1 sequence (Q5VWK5 24-629): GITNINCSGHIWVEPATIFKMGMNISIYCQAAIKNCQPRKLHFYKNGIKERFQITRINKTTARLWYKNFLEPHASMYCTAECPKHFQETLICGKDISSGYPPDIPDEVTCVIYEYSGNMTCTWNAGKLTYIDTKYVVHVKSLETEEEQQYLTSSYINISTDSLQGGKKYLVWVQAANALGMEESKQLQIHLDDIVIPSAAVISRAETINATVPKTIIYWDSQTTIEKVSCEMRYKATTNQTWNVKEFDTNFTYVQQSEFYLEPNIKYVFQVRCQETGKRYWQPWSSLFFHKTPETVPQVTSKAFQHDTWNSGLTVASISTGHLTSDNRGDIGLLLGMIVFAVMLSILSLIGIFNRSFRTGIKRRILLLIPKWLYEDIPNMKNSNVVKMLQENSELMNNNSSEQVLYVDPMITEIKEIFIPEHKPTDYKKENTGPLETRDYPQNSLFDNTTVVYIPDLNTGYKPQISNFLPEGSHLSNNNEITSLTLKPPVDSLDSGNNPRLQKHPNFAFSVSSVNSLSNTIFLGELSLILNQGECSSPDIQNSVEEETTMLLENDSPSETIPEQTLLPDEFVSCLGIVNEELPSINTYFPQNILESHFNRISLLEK

EPSA [1] [A^2] | IC50 (IL-23R) [nM] | Structure (SMILES)
156 | 2.1 | CC(=O)N(C)CCCC[C@@H]1NC(=O)[C@H](Cc2c[nH]c3c(C)cccc23)NC(=O)[C@H]([C@@H](C)O)NC(=O)[C@H](CC(=O)N(C)C)NC(=O)[C@@H](NC(=O)CCOCCOCC[N+](C)(C)C)C(C)(C)SSC(C)(C)[C@@H](C(=O)N[C@@H](Cc2ccc(OCCOCCOCC[N+](C)(C)C)cc2)C(=O)N[C@@H](Cc2ccc3ccccc3c2)C(=O)NC2(C(=O)N[C@@H](Cc3ccccc3)C(=O)N[C@@H](CC(N)=O)C(=O)N[C@@H](Cc3cccnc3)C(=O)N(C)CC(=O)N(C)C)CCOCC2)NC1=O [compound 469, cPEG3aCO-Pen(3)-N(N(Me)2)-T-7MeW-K(NMeAc)-Pen(3)-APEG3F-2Nal-THP-F-N-3Pya-Sar-CON(Me)2] ({Me3N+(CH2)2O(CH2)2O(CH2)2CO}-[Pen]D(NMe2)T[Trp(7-Me)][Lys(Me)](Ac)[Pen]Y(CH2CH2OCH2CH2OCH2CH2NMe3+)[2Nal][Thp]FN[3Pal][Sar]-NMe2; disulfide 1-6)
160 | 1.2 | CC(=O)N(C)CCCC[C@@H]1NC(=O)[C@H](Cc2c[nH]c3c(C)cccc23)NC(=O)[C@H]([C@@H](C)O)NC(=O)[C@H](CC(=O)N(C)C)NC(=O)[C@@H](NC(=O)CCOCCOCC[N+](C)(C)C)C(C)(C)SSC(C)(C)[C@@H](C(=O)N[C@@H](Cc2ccc(OCCOCCOCC[N+](C)(C)C)cc2)C(=O)N[C@@H](Cc2ccc3ccccc3c2)C(=O)NC2(C(=O)N[C@@H](Cc3c[nH]c4ccccc34)C(=O)N[C@@H](CC(N)=O)C(=O)N[C@@H](Cc3cccnc3)C(=O)N(C)CC(=O)N(C)C)CCOCC2)NC1=O [compound 470, cPEG3aCO-Pen(3)-N(N(Me)2)-T-7MeW-K(NMeAc)-Pen(3)-APEG3F-2Nal-THP-W-N-3Pya-Sar-CON(Me)2] ({Me3N+(CH2)2O(CH2)2O(CH2)2CO}-[Pen]D(NMe2)T[Trp(7-Me)][Lys(Me)](Ac)[Pen]Y(CH2CH2OCH2CH2OCH2CH2NMe3+)[2Nal][Thp]WN[3Pal][Sar]-NMe2; disulfide 1-6)
153 | 1540 | CC(=O)N(C)CCCCC(NC(=O)C1(NC(=O)[C@H](Cc2ccc3ccccc3c2)NC(=O)[C@H](Cc2ccc(OCCOCCOCC[N+](C)(C)C)cc2)NC(=O)[C@@H]2CCSC[C@H](NC(=O)CCOCCOCC[N+](C)(C)C)C(=O)N[C@@H](CC(=O)N(C)C)C(=O)N[C@@H]([C@@H](C)O)C(=O)N[C@@H](Cc3c[nH]c4c(C)cccc34)C(=O)N[C@@H](CCCCN(C)C(C)=O)C(=O)N2)CCOCC1)C(=O)N[C@@H](CC(N)=O)C(=O)N[C@@H](Cc1ccccc1)C(=O)N(C)CC(=O)N(C)C (stereo partly shown) [compound 475, cPEG3aCO-Abu(1)-N(N(Me)2)-T-7MeW-K(NMeAc)-C(1)-APEG3F-2Nal-THP-K(NMeAc)-N-F-Sar-CON(Me)2] ({Me3N+(CH2)2O(CH2)2O(CH2)2CO}-CD(NMe2)T[Trp(7-Me)][Lys(Me)](Ac)[Abu(4-yl)]Y(CH2CH2OCH2CH2OCH2CH2NMe3+)[2Nal][Thp][ξLys(Me)](Ac)NF[Sar]-NMe2; thioether 1-6)

Further lines, the molecule ahead of its results:

Structure (SMILES) | EPSA [1] [A^2] | IC50 (IL-23R) [nM]
CC(=O)NCCCC[C@@H]1NC(=O)[C@H](Cc2c[nH]c3c(C)cccc23)NC(=O)[C@H]([C@@H](C)O)NC(=O)[C@H](CC(N)=O)NC(=O)[C@@H](NC(=O)CCOCCOCC[N+](C)(C)C)C(C)(C)SSC(C)(C)[C@@H](C(=O)N[C@@H](Cc2ccc(OCCNC(=N)N)cc2)C(=O)N[C@@H](Cc2ccc3ccccc3c2)C(=O)NC2(C(=O)N[C@@H](CCCCNC(C)=O)C(=O)N[C@@H](CC(N)=O)C(=O)N[C@@H](Cc3cccnc3)C(=O)N(C)CC(N)=O)CCOCC2)NC1=O [compound 471, cPEG3aCO-Pen(3)-N-T-7MeW-K(Ac)-Pen(3)-AEF(G)-2Nal-THP-K(Ac)-N-3Pya-Sar-CONH2] ({Me3N+(CH2)2O(CH2)2O(CH2)2CO}-[Pen]NT[Trp(7-Me)]K(Ac)[Pen]Y(Ethyl(2-guanidino))[2Nal][Thp]K(Ac)N[3Pal][Sar]-NH2; disulfide 1-6) | 174 | 0.69
CC(=O)NCCCC[C@@H]1NC(=O)[C@H](Cc2c[nH]c3c(C)cccc23)NC(=O)[C@H]([C@@H](C)O)NC(=O)[C@H](CC(N)=O)NC(=O)[C@@H](NC(=O)[C@@H](CCCNC(=N)N)NC(=O)CCOCCOCC[N+](C)(C)C)C(C)(C)SSC(C)(C)[C@@H](C(=O)N[C@@H](Cc2ccc(OCCN)cc2)C(=O)N[C@@H](Cc2ccc3ccccc3c2)C(=O)NC2(C(=O)N[C@@H](CCC(=O)O)C(=O)N[C@@H](CC(N)=O)C(=O)N[C@@H](Cc3cncc(C)c3)C(=O)N(C)CC(N)=O)CCOCC2)NC1=O [compound 473, cPEG3aCO-r-Pen(3)-N-T-7MeW-K(Ac)-Pen(3)-AEF-2Nal-THP-E-N-5MePyridinAla-Sar-CONH2] ({Me3N+(CH2)2O(CH2)2O(CH2)2CO}-[dR][Pen]NT[Trp(7-Me)]K(Ac)[Pen][AEF][2Nal][Thp]EN[3Pal(5-Me)][Sar]-NH2; disulfide 2-7) | 202 | 12
CC(=O)N(C)CCCCC(NC(=O)C1(NC(=O)[C@H](Cc2ccc3ccccc3c2)NC(=O)[C@H](Cc2ccc(OCCOCCOCC[N+](C)(C)C)cc2)NC(=O)[C@@H]2CSCC[C@H](NC(=O)CCOCCOCC[N+](C)(C)C)C(=O)N[C@@H](CC(=O)N(C)C)C(=O)N[C@@H]([C@@H](C)O)C(=O)N[C@@H](Cc3c[nH]c4c(C)cccc34)C(=O)N[C@@H](CCCCN(C)C(C)=O)C(=O)N2)CCOCC1)C(=O)N[C@@H](CC(N)=O)C(=O)N[C@@H](C)C(=O)N(C)CC(=O)N(C)C (stereo partly shown) [compound 476, cPEG3aCO-Abu(1)-N(N(Me)2)-T-7MeW-K(NMeAc)-C(1)-APEG3F-2Nal-THP-K(NMeAc)-N-A-Sar-CON(Me)2] ({Me3N+(CH2)2O(CH2)2O(CH2)2CO}-[Abu(4-yl)]D(NMe2)T[Trp(7-Me)][Lys(Me)](Ac)CY(CH2CH2OCH2CH2OCH2CH2NMe3+)[2Nal][Thp][ξLys(Me)](Ac)NA[Sar]-NMe2; thioether 1-6) | 155 | > 2590
CC(=O)NCCCC[C@@H]1NC(=O)[C@H](Cc2c[nH]c3c(-c4cccc(NC(C)=O)c4)cccc23)NC(=O)[C@H]([C@@H](C)O)NC(=O)[C@H](CC(N)=O)NC(=O)[C@@H](NC(C)=O)CCSC[C@@](C)(C(=O)N[C@@H](Cc2ccc(OCCCCC[N+](C)(C)C)cc2)C(=O)N[C@@H](Cc2ccc3ccccc3c2)C(=O)NC2(C(=O)N[C@@H](CCCCNC(C)=O)C(=O)N[C@@H](CC(N)=O)C(=O)N[C@@H](Cc3cccnc3)C(=O)N(C)CC(N)=O)CCOCC2)NC1=O [compound 477, MeCO-Abu(1)-N-T-7(3NAcPh)W-K(Ac)-aMeC(1)-TMAPF-2Nal-THP-K(Ac)-N-3Pya-Sar-CONH2] (Ac-[Abu(4-yl)]NT[Trp(7-(3-AcNH-Ph))]K(Ac)[αMeC]Y(X3)[2Nal][Thp]K(Ac)N[3Pal][Sar]-NH2; thioether 1-6) | 166 | 6.1
CC(=O)N(C)CCCC[C@@H]1NC(=O)[C@H](Cc2c[nH]c3c(C)cccc23)NC(=O)[C@H]([C@@H](C)O)NC(=O)[C@H](CC(=O)N(C)C)NC(=O)[C@@H](NC(=O)CCOCCOCC[N+](C)(C)C)C(C)(C)SSC(C)(C)[C@@H](C(=O)N[C@@H](Cc2ccc(-n3cc(CCCCCCC[N+]4(C)CCOCC4)nn3)cc2)C(=O)N[C@@H](Cc2ccc3ccccc3c2)C(=O)NC2(C(=O)N[C@@H](CCCCN(C)C(C)=O)C(=O)N[C@@H](CC(N)=O)C(=O)N[C@@H](Cc3cccnc3)C(=O)N(C)CC(=O)N(C)C)CCOCC2)NC1=O [compound 479, cPEG3aCO-Pen(3)-N(N(Me)2)-T-7MeW-K(NMeAc)-Pen(3)-F(4TzIMMo7)-2Nal-THP-K(NMeAc)-N-3Pya-Sar-CON(Me)2] ({Me3N+(CH2)2O(CH2)2O(CH2)2CO}-[Pen]D(NMe2)T[Trp(7-Me)][Lys(Me)](Ac)[Pen][X41][2Nal][Thp][Lys(Me)](Ac)N[3Pal][Sar]-NMe2; disulfide 1-6) | 158 | 3.4
